Active and inactive are the calls of the source. The calls are words filed in the database; no cut-off is given here.
Legend:
[1] = biological target: D(1A) dopamine receptor (Homo sapiens) (UniProt P21728); assay: Displacement of [3H]SCH-23390 from human dopamine D1 receptor expressed in CHO cell membrane assessed as inhibition of radioligand binding at 100 nM incubated for 60 mins by competition binding based scintillation counter analysis relative to control; assay type: cell membranes
[2] = biological target: Sodium-dependent serotonin transporter (Homo sapiens) (UniProt P31645); assay: Displacement of [3H]-imipramine from human 5-HT transporter expressed in CHO cell membrane assessed as inhibition of radioligand binding at 100 nM incubated for 60 mins by competition binding based scintillation counter analysis relative to control; assay type: cell membranes
Mus musculus [3] = assay: Analgesic activity in naloxone induced CD-1 mouse assessed as increase in latency to pain response at 5 mg/kg,po administration measured after 30 mins by tail flick assay; assay type: functional, organism-based
Mus musculus [4] = assay: Analgesic activity against formalin-induced inflammatory pain C57Bl/6 mouse model assessed as reduction in licking response at 5 mg/kg,SC pretreated for 30 min followed by formalin challenge and measured after 30 mins; assay type: functional, organism-based; conditions: time 60.0 min
Mus musculus [5] = assay: Analgesic activity in thermal stimulated CD-1 mouse assessed as increase in latency to pain response at 5 mg/kg,SC administration measured after 30 mins by tail flick assay; assay type: functional, organism-based
[6] = biological target: 5-hydroxytryptamine receptor 2A (Homo sapiens) (UniProt P28223); assay: Displacement of [125I]DOI from human 5-HT2A receptor expressed in HEK293 cell membrane assessed as inhibition of radioligand binding at 100 nM incubated for 60 mins by competition binding based scintillation counter analysis relative to control; assay type: cell membranes
[7] = biological target: T1, Alpha-1A adrenergic receptor (Homo sapiens) (UniProt P35348); assay: Antagonist activity at human alpha 1A adrenergic receptor expressed in CHO-K1 cells assessed as inhibition of phenylephrine induced […] calcium response at <= 10 uM by whole cell-based assay; assay type: functional; conditions: filed as antagonist
T1 sequence (whole entry): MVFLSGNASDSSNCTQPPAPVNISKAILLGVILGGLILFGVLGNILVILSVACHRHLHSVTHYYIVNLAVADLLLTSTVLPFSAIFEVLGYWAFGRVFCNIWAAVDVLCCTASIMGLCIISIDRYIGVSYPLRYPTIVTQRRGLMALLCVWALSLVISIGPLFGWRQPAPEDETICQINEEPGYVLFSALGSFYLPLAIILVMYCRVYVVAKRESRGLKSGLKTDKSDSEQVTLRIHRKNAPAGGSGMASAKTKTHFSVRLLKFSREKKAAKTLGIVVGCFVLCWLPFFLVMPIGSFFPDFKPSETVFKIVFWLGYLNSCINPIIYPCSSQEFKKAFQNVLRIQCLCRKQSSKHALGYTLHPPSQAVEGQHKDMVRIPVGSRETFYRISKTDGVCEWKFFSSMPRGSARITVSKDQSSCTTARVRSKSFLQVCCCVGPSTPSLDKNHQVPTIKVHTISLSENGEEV

[8] = biological target: D(2) dopamine receptor (Homo sapiens) (UniProt P14416); assay: Displacement of [3H]7-OH-DPAT from human dopamine D2 receptor expressed in HEK293 cell membrane assessed as inhibition of radioligand binding at 100 nM incubated for 60 mins by competition binding based scintillation counter analysis relative to control; assay type: cell membranes
[9] = biological target: Sodium-dependent serotonin transporter (Homo sapiens) (UniProt P31645); assay: Displacement of [3H]-imipramine from human 5-HT transporter expressed in CHO cell membrane assessed as inhibition of radioligand binding at 200 nM incubated for 60 mins by competition binding based scintillation counter analysis relative to control; assay type: cell membranes

Sequence of 5-hydroxytryptamine receptor 2A (Homo sapiens) (P28223 whole entry): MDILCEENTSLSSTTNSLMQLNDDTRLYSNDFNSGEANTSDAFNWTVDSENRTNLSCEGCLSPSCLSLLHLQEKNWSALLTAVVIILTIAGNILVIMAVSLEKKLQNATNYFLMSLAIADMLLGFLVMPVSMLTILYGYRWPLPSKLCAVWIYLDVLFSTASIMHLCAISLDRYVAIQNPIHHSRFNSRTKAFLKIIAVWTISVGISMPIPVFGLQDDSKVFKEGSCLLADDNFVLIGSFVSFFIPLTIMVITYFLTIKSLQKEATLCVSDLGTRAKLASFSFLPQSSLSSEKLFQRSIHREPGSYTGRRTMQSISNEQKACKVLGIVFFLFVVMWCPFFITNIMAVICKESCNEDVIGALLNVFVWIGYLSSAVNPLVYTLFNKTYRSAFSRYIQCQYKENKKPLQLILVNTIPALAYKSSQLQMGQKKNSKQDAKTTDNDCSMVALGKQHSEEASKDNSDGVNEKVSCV
Sequence of D(2) dopamine receptor (Homo sapiens) (P14416 whole entry): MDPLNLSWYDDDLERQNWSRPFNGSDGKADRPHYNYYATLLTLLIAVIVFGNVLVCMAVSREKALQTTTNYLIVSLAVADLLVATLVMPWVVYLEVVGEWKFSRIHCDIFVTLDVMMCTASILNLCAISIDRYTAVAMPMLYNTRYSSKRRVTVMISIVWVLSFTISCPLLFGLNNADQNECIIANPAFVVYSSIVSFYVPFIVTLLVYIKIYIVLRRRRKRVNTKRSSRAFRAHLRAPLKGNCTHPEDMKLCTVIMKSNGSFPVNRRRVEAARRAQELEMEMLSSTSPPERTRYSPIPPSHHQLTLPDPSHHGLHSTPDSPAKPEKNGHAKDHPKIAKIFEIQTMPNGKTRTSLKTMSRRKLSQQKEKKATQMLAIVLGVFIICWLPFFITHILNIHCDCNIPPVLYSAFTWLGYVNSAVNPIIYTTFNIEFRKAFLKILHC
Sequence of D(1A) dopamine receptor (Homo sapiens) (P21728 whole entry): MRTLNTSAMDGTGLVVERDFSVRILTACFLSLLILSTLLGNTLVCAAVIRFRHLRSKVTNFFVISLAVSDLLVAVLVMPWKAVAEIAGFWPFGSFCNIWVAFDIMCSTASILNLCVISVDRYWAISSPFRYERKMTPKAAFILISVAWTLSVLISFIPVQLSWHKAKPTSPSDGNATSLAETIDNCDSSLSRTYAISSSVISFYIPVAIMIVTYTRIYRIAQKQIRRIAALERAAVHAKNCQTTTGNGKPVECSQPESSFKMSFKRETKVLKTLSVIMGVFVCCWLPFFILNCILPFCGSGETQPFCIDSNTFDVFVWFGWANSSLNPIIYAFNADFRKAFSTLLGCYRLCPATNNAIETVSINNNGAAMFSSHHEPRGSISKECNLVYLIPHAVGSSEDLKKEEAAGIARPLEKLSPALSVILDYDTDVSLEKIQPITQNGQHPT
Sequence of Sodium-dependent serotonin transporter (Homo sapiens) (P31645 whole entry, looked up): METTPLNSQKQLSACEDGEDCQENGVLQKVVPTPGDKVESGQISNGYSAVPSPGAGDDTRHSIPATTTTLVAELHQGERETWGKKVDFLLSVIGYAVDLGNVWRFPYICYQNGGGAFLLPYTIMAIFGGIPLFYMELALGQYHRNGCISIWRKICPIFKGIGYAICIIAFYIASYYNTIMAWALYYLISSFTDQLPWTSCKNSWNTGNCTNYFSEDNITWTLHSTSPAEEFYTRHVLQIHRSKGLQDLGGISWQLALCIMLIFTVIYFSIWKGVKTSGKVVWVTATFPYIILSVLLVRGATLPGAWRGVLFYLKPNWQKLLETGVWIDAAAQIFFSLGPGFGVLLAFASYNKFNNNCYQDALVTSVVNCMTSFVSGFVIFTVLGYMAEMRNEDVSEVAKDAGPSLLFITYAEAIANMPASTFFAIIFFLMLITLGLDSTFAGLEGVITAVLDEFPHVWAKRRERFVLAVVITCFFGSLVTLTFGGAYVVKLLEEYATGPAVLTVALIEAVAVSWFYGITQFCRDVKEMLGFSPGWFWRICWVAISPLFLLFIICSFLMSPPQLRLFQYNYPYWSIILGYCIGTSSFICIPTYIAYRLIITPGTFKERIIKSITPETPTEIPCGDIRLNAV

In the case of `O=C1CN2c3c(cccc3[C@@H]3CN(CCCOc4ccc(Br)cc4)CC[C@@H]32)N1`, the inhibition [1] is reported as “inactive”.

With `O=C1CN2c3c(cccc3[C@@H]3CN(CCOc4ccc(F)cc4)CC[C@@H]32)N1` the inhibition [2] was “inactive”.

With `CN1CC[C@]23c4c5ccc(O)c4O[C@H]2[C@@H](O)C=C[C@H]3[C@H]1C5` the Activity (Mus musculus [3]) was “inactive”, the Activity (Mus musculus [4]) was “Active” and the Activity (Mus musculus [5]) was “Active”.

With `O=C1CN2c3c(cccc3[C@@H]3CN(CCCOc4ccc(O)cc4)CC[C@@H]32)N1` the inhibition [1] was “inactive”.

`CC1C(=O)Nc2cccc3c2N1[C@H]1CCN(CCCOc2ccc(F)cc2)C[C@@H]31` (stereo partly specified) was tested, and the inhibition [2] was “inactive”.

With `CCCCN1CC[C@H]2[C@@H](C1)c1cccc3c1N2CC(=O)N3` the inhibition [6] was “inactive”, the inhibition [1] was “inactive” and the inhibition [2] was “inactive”.

With `O=C1CN2c3c(cccc3[C@@H]3CN(CCCOc4ccc(F)cc4)CC[C@@H]32)N1` the Activity [7] was “Active”.

`NC(=O)c1cc(F)ccc1OCCCN1CC[C@H]2[C@@H](C1)c1cccc3c1N2CC(=O)N3` was tested, and the inhibition [1] was “inactive” and the inhibition [8] was “inactive”.

With `Cc1cc(F)cc(C)c1OCCCN1CC[C@H]2[C@@H](C1)c1cccc3c1N2CC(=O)N3` the inhibition [1] was “inactive” and the inhibition [8] was “inactive”.

For `O=C1CN2c3c(cccc3[C@@H]3CN(CCCS(=O)(=O)c4ccc(F)cc4)CC[C@@H]32)N1`, the inhibition [1] was “inactive”, the inhibition [9] was “inactive” and the inhibition [8] was “inactive”.

With `COc1ccc(OCCCN2CC[C@H]3[C@@H](C2)c2cccc4c2N3CC(=O)N4)cc1` the inhibition [6] was “inactive” and the inhibition [1] was “inactive”.

For `O=C1CN2c3c(cccc3[C@@H]3CN(CCCO)CC[C@@H]32)N1`, the inhibition [1] was “inactive”, the inhibition [2] was “inactive” and the inhibition [8] was “inactive”.

`O=C1CN2c3c(cccc3[C@@H]3CN(CCCOc4ccc5c(c4)OCO5)CC[C@@H]32)N1` was tested, and the inhibition [6] was “inactive” and the inhibition [1] was “inactive”.

In the case of `O=C1CN2c3c(cccc3[C@@H]3CN(CCCCOc4ccc(F)cc4)CC[C@@H]32)N1`, the inhibition [2] is reported as “inactive”.

— ChEMBL document CHEMBL5506064, “Discovery of ITI-333, a Novel Orally Bioavailable Molecule Targeting Multiple Receptors for the Treatment of Pain and Other Disorders” (J Med Chem, 2024)
